Measurements published in patent US6790862B2 (priority 1999, dated 2004).
Values after ≈ are worked out from the molar mass of the structure shown. Where two headings read alike, the source gives them in different places.

Columns and labels:
HL-60 cells = assay: MTT cell proliferation assay; type: cell-based, human; settings: for IC50: Homo sapiens
Description: (§1) Tumorigenic and non-tumorigenic cell lines were cultured as previously described in Hood K. A., West L. M., Northcote P. T., Berridge M. V., Miller J. H., Apoptosis (2001), 6, 207-219. These cell lines included HL-60 and KS62, two tumorigenic human myeloid leukemic cell lines, 32D clone 3 (32D), a non-tumorigenic murine myeloid cell line, 32D-ras, the ras-transformed derivative of 32D, H441, a human lung adenocarcinoma cell line, SH-SY5Y, a human neuroblastoma cell line, and LLC-PK1, a non-tumorigenic pig kidney cell line. IC50 values for Peloruside A in the different cell lines were determined using the tetrazolium-based MTT cell proliferation assay as previously described (Hood K. A et al.).

HeLa cells = assay: anti-metabolic activity, WST-1 reduction; type: cell-based; design: stimulation of WST-1 reduction: dose or concentration left out as unconfirmed
Description: (§2) The effect of Peloruside A and paclitaxel on superoxide production was determined using human peripheral blood neutrophils activated with […] N-formyl-met-leu-phe (fMLP) as described previously (Tan A. S., Berridge M. V., J. Immunol. Meth. (2000), 238, 59-68). In this microplate assay, the cell-impermeable tetrazolium salt, WST-1, is reduced to its soluble formazan and dye reduction measured at 450 nm as an initial rate over 10-20 min. Samples were equilibrated with cells for 3 min at 37° C. and the reaction initiated by adding fMLP. Measurement of anti-metabolic activity followed a similar microplate protocol except that HeLa cells were used instead of neutrophils, cells were not activated with fMLP, and the intermediate electron acceptor, 1-methoxy phenazine methosulfate at 25 mM, was included in the WST-1 reagent to facilitate detection of low potential electrons from the plasma membrane.

b-tubulin in HL-60 cells = assay: in situ tubulin polymerization, immunoblot of soluble and particulate fractions; type: cell-based, human; settings: 5 h; for b-tubulin remaining in the soluble fraction: HL-60, 100 nM; for effect on proportion of soluble to polymerized tubulin: HL-60, different concentrations
Source text: A simple in situ cellular assay as described by Giannakakou P., Gussio R., Nogales E., Downing K. H., Zaharevitz D., Bollbuck B., Poy G., Sackett D., Nicolaou K. C., Fojo T., Proc. Nat. Acad. Sci. (USA) (2000), 97, 2904-2909 was used in which the shift in tubulin from depolymerized to polymerized forms was followed by electrophoresis and Western blotting of centrifuged particulate and cytosolic fractions. To summarize, 2×10^6 untreated and drug-exposed HL-60 cells were lysed by exposure for 5 min at 37° C. to […] of hypotonic buffer (1 mM MgCl2, 2 mM EGTA, 1% Nonidet P-40, 2 mM phenylmethylsulfonyl fluoride, 1 mg/mL aprotinin, 2 mg/mL pepstatin, and 20 mM Tris-HCl, pH 6.8) and the particulate fraction separated from the soluble cytosolic fraction by high speed centrifugation for 10 min in a bench-top centrifuge. Samples labeled ‘0 min’ received drug immediately before collection of the cells. The processing of the cells to the critical centrifugation step required approximately 30 min. The pellet was dissolved in […] of sample buffer (8 M urea, 4% CHAPS, 3 M thiourea, and 40 mM DTT). Twenty mL of loading buffer was added to each […] sample, the samples were vortexed and then boiled for 5 min. Twenty mL of each sample was loaded on an SDS/10% polyacrylamide gel and resolved by electrophoresis. b-Tubulin bands were identified by Western blotting using b-tubulin primary antibody ( 1/1000 dilution) following standard immunoblotting procedures with detection by enhanced chemiluminescence (Lumi-Light, Roche).
Scale bar (lower right)=500 nm.

H441 cells [1] = assay: cellular morphology, phase-contrast microscopy; type: cell-based, human; settings: for treated cells with intracellular fiber bundles: H441, 48 h; for treated cells with intracellular fiber bundles / micronuclei: 100 nM; for micronuclei: H441, 2 days exposure; for intracellular fiber bundles: H441, phase-contrast microscopy
Description: Phase-contrast photomicrographs of H441 human lung adenocarcinoma cells: untreated control cells (A) and cells exposed for 48 h to 100 nM Peloruside A (B) or 100 nM paclitaxel (C). Note the intracellular fiber bundles in approximately 10% of the treated cells and the numerous micronuclei, each with a dark central spot of condensed DNA. Scale bar=[…].

H441 cells [2] = assay: cell cycle by flow cytometry (PI) and mitotic index; type: cell-based, human; design: metaphase-arrested cells (mitotic index): dose or concentration left out as unconfirmed; settings: H441, 24 h
Description: Using standard methodology, the DNA of cells was stained with propidium iodide (PI), and the proportion of cells in different phases of the cell cycle was monitored by flow cytometry. Briefly, H441 cells were treated with […] for 24 h. Adherent cells were collected by trypsinization and added to those in suspension. The cells were then fixed with cold 70% ethanol overnight and stained with PI solution consisting of 45 mg/mL PI, 10 mg/mL RNaseA, and 0.1% glucose. After a 2 h incubation at RT, samples were analysed in a FACSort flow cytometer (Becton Dickinson).
Cells were treated with […] Peloruside A or paclitaxel, stained with PI, and counted by flow cytometry. For the mitotic index, cells were treated for 24 h with different concentrations of Peloruside A or paclitaxel, and the number of cells in mitosis divided by the total number of cells (n=at least 400 cells counted in each of 3 preparations).

K562 cells = assay: cellular morphology; type: cell-based, human; settings: K562, 2 days exposure, 100 nM
purified tubulin = assay: in vitro tubulin polymerization and electron microscopy; type: biochemical; design: polymerization of purified tubulin in solution: dose or concentration left out as unconfirmed; settings: for polymerization of purified tubulin in solution: 30 min, 37° C., electron microscopy; for stability of induced microtubules: at 0C
Description: Purified tubulin (approximately 7.5 mg protein) containing approximately 15% microtubule-associated proteins was obtained from Sigma and reconstituted in 0.1 M MES buffer, pH 6.8, 1 mM EGTA, 0.1 mM EDTA, 0.5 mM MgCl2, 1 mM DTT, 0.1 mM GTP, 1 mg/mL leupeptin, 1 mg/mL aprotinin, and 100 mg/mL sucrose as stabilizer. The reconstituted tubulin was incubated at 37° C. for 30 min in the presence of […] Peloruside A or […] paclitaxel. Samples […] were pipetted onto 400-mesh carbon- and Formvar-coated copper grids and left for 2 min at RT before blotting with filter paper. Each grid was stained with 5 mL of 1% uranyl acetate for 3 min at RT, then blotted with filter paper. Grids were air-dried overnight before examination in a Philips CM100 transmission electron microscope.
(B) Immunoblots following exposure to […] Peloruside A and […] paclitaxel for varying lengths of time. (C) Transmission electron micrograph of microtubules formed following treatment of purified soluble tubulin with […] Peloruside A for 30 min at 37° C. Scale bar (lower right)=500 nm.

[3] = tested on: human peripheral blood neutrophils; assay: fMLP-activated respiratory burst, superoxide production (WST-1); type: cell-based; design: dose or concentration left out as unconfirmed
Description: as §2

[4] = tested on: H441 (human lung adenocarcinoma); assay: MTT cytotoxicity assay, 96 hours exposure; type: cell-based; settings: for nuclei break up into small vessicles (nuclear blebbing): H441, comparators at their respective LD50s
Description: (§3) The cytotoxicity of Peloruside A was tested in five cell lines:
H441 (human lung adenocarcinoma)
(§4) 32D (murine myeloid) generally in accordance with the MTT assay of Burres et al., J. Cancer Research (1989), 49, 2935-2940.
(§5) Briefly, cell lines were maintained in Dulbecco's modified Eagle's medium: F12 medium (50:50) (Gibco) supplemented with 10% fetal calf serum (Gibco), […] Penicillin G, and […] streptomycin sulfate. After 96 hours exposure to the toxin, cell viability was determined by the MTT calorimetric assay. […] Data were analysed with the SYSTAT statistical program using a non-linear model fit, and IC50 values were calculated using a Logit-Log plot.

32D (murine myeloid) = assay: MTT cytotoxicity assay; type: cell-based
Description: as §3, §4
as §5, with “After 96 hours exposure to the toxin, cell viability was determined by the MTT calorimetric assay.” left out

[5] = lipophilicity by thin layer chromatography; type: physicochemical
[6] = tested on: P388 (Murine Leukemia) cells; assay: anti-tumor assay, P388 cell growth, MTT; type: cell-based; settings: Mus musculus, 72 hours incubation, read-out: cytotoxic to P388 murine leukemia cells (IC50)
Description: The bioactivity of peloruside A as an anti-tumor agent was determined by an anti-tumor assay. For the anti-tumor assay a 2-fold dilution series of the same of interest is incubated for 72 hours with P388 (Murine Leukemia) cells. The concentration of sample required to reduce the P388 cell growth by 50% (comparative to control cells) is determined using the absorbance values obtained with the yellow dye MTT tetrazollum is reduced by healthy cells to the purple colour MTT formazan. The result is expressed as an IC50 in ng/mL.

[7] = tested on: SH-SY5Y (human neuroblastoma); assay: MTT cytotoxicity assay, 96 hours exposure; type: cell-based
Description: as §3
SH-SY5Y (human neuroblastoma)
as §4, §5

LLC-PK1 (pig kidney) = assay: MTT cytotoxicity assay, 96 hours exposure; type: cell-based; settings: LLC-PK1, 96 hours exposure
Description: as §3, §4, §5

P388 (murine leukemia) = assay: MTT cytotoxicity assay, 96 hours exposure; type: cell-based; settings: P388, 96 hours exposure
Description: as §3, §4, §5

[8] = tested on: different cell lines (H441, SY5Y, HL-60, 32D-ras, 32D, LLC-PK1); assay: MTT cell proliferation assay in the different cell lines; type: cell-based; settings: 96 h; 4-day exposure
Description: as §1

[9] = indirect, fragment-based computational calculation; cited from earlier work

Compound | b-tubulin remaining in the soluble fraction (b-tubulin in HL-60 cells) | effect on proportion of soluble to polymerized tubulin (b-tubulin in HL-60 cells) | treated cells with intracellular fiber bundles (H441 cells [1]) | micronuclei (H441 cells [1]) | intracellular fiber bundles (H441 cells [1]) | cell cycle arrest (H441 cells [2]) | metaphase-arrested cells (mitotic index) (H441 cells [2]) [%] | micronuclei (K562 cells) | polymerization of purified tubulin in solution (purified tubulin) | stability of induced microtubules (purified tubulin) | IC50 (HL-60 cells; HL-60) [nM] | nuclei break up into small vessicles (nuclear blebbing) [4] | further results
CC(=O)O[C@H]1C(=O)[C@@]2(C)[C@H]([C@H](OC(=O)c3ccccc3)[C@]3(O)C[C@H](OC(=O)[C@H](O)[C@@H](NC(=O)c4ccccc4)c4ccccc4)C(C)=C1C3(C)C)[C@]1(OC(C)=O)CO[C@@H]1C[C@@H]2O [paclitaxel, Paclitaxel, reference compound] | No detectable b-tubulin remained in the soluble fraction | dose-dependent shifts of soluble tubulin to the particulate fraction | approximately 10% | multiple micronuclei were observed | large intracellular fiber bundles were observed | partial cell cycle arrest at G2/M | 64±4 | multiple micronuclei were observed | polymerize in solution into typical, long, straight microtubules | stable | – | – | IC50 (HL-60 cells; HL-60 cells, ± S.E.M., read-out: IC50): 22 ± 8 nM; effect on WST-1 reduction (HeLa cells; 12-24 mM): little effect; effect on neutrophil activation [3]: no effect
CCC(/C=C(/C)C1C[C@H](OC)C[C@@H](O)C(C)(C)C(O)C(O)C(OC)C[C@H](O)C[C@H](OC)[C@@H](O)C(=O)O1)CO (stereo partly drawn) [Peloruside A reduction product] | – | no significant effect | – | – | – | – | – | – | – | – | 221 ± 24 | – | increase of IC50 relative to Peloruside A (HL-60 cells; HL-60 cells): 31 fold
pateamine [reference compound] | – | – | – | – | – | – | – | – | – | – | – | not been observed | –
CCC(/C=C(/C)C1C[C@H](OC)C[C@@H](O)C(C)(C)[C@]2(O)OC(CC(OC)C2O)C[C@H](OC)[C@@H](O)C(=O)O1)CO (stereo partly drawn) [Peloruside A] | No detectable b-tubulin remained in the soluble fraction | dose-dependent shifts of soluble tubulin to the particulate fraction | approximately 10% | multiple micronuclei were observed | large intracellular fiber bundles were observed | partial cell cycle arrest at G2/M | 34±2 | multiple micronuclei were observed | polymerize in solution into typical, long, straight microtubules | stable | 7 ± 4 | nuclei of the cells were observed to break up into small vessicles | LD50 (32D (murine myeloid); 96 hours exposure): 0.0078 µM; LD50 (32D (murine myeloid); viability at 24 hours of exposure): 1600 µM; lipophilicity [5]: less lipophilic than paclitaxel; LD50 ([4]; H441, 96 hours exposure): 6.2 nM; IC50 [6]: ~0.01 µg/mL (≈ 0.0182 µM); stimulation of WST-1 reduction (HeLa cells): 20%; retraction of dendrites [7]: no retraction of dendrites was observed; LD50 ([7]; 96 hours exposure): 14.9 nM; LD50 (LLC-PK1 (pig kidney)): 3.7 nM; LD50 (P388 (murine leukemia)): 18 nM; IC50 [8]: 4 to 15 nM
C=C/C=C\[C@H](C)[C@H](OC(N)=O)[C@@H](C)[C@H](O)[C@@H](C)C/C(C)=C\[C@H](C)[C@@H](O)[C@@H](C)/C=C\[C@@H](O)C[C@@H]1OC(=O)[C@H](C)[C@@H](O)[C@H]1C [Discodermolide, discodermolide] | – | – | – | – | – | – | – | – | – | – | – | – | solubility relative to paclitaxel [9]: 160 fold
C=C1C[C@](OC)([C@H](O)C(=O)N[C@H]2OCO[C@H]3[C@@H]2O[C@H](C[C@H](O)CO)C(C)(C)[C@@H]3OC)O[C@H](C)[C@@H]1C [mycalamide A, reference compound] | – | – | – | – | – | – | – | – | – | – | – | not been observed | –
